Assay results published in the NIST ThermoML archive (doi:10.1021/acs.jced.5b00536).
Values joined by “and” are separate entries in the source; they are usually repeats but may differ in a detail not shown here. Equal values may be shown once.

Experiment: xn = mol fraction of the nth substance listed
Settings: x2 = 0.79; for electrical conductivity / mass density: 100 kPa, Liquid; for electrical conductivity: Alternating current cell with electrodes; for mass density: Buoyancy - hydrostatic balance; for surface tension liquid-gas: Maximal bubble pressure

[Ca+2].[F-].[F-] [calcium fluoride] + [F-].[Li+]
Settings	electrical conductivity [S/m]	mass density	surface tension liquid-gas [mN/m]
1163.6 K	0.062335	2044.7 kg/m3	–
1164.3 K	–	2044.6 kg/m3	–
1164.7 K	–	2048.4 kg/m3	–
1164.8 K	0.062395	–	–
1164.9 K	–	2048.4 kg/m3	–
1165.1 K	–	2048.4 kg/m3	–
1165.4 K	–	2047.8 kg/m3	–
1166.2 K	–	2047.1 kg/m3	–
1166.5 K	–	2046.5 kg/m3	–
1167.2 K	–	2046.4 kg/m3	–
1167.7 K	–	2045.8 kg/m3	–
1167.9 K	–	2045.3 kg/m3	–
1168.5 K	–	2045.2 kg/m3	–
1168.8 K	–	2044.6 kg/m3	–
1169 K	–	2044.6 kg/m3	–
1169.3 K	–	2044 kg/m3	–
1169.9 K	–	2043.4 kg/m3	–
1170 K	–	–	216
1170.1 K	–	2042.8 kg/m3	–
1170.6 K	–	2042.7 kg/m3	–
1171.2 K	–	2042.1 kg/m3	–
1171.5 K	–	2041.5 kg/m3	–
1171.9 K	–	2040.9 kg/m3	–
1172.2 K	–	2040.9 kg/m3	–
1172.9 K	–	2040.3 kg/m3	–
1173.2 K	–	2039.7 kg/m3	–
1173.3 K	–	2039.1 kg/m3	–
1173.6 K	–	2039.1 kg/m3	–
1173.8 K	–	2038.5 kg/m3	–
1174.9 K	–	2043.9 kg/m3	–
1175.4 K	–	2043.3 kg/m3	–
1176 K	–	2042.7 kg/m3	–
1176.3 K	–	2042.1 kg/m3	–
1177.1 K	–	2042 kg/m3	–
1177.5 K	–	2041.4 kg/m3	–
1178.4 K	–	2040.7 kg/m3	–
1179.4 K	–	2040 kg/m3	–
1179.7 K	–	2040 kg/m3	–
1180.3 K	–	2039.4 kg/m3	–
1180.5 K	–	2038.3 kg/m3 and 2038.8 kg/m3	–
1180.8 K	–	2037.7 kg/m3	–
1181 K	–	2037.1 kg/m3	–
1181.2 K	–	2037.1 kg/m3	–
1181.6 K	–	2036.5 kg/m3	–
1182.2 K	–	2035.9 kg/m3	–
1182.5 K	–	2035.8 kg/m3	–
1182.8 K	–	2035.2 kg/m3	–
1183.2 K	–	2034.6 kg/m3	–
1183.9 K	–	2034.6 kg/m3	–
1184.1 K	–	2034 kg/m3	–
1184.5 K	–	2033.9 kg/m3	–
1185.8 K	–	2036.5 kg/m3	–
1186.6 K	–	2035.9 kg/m3	–
1187 K	–	2035.3 kg/m3	–
1187.8 K	–	2035.2 kg/m3	–
1188 K	–	–	213.8
1188.4 K	–	2034.6 kg/m3	–
1189.1 K	–	2033.9 kg/m3	–
1189.4 K	–	2033.9 kg/m3	–
1189.9 K	–	2033.3 kg/m3	–
1190.2 K	–	2032.7 kg/m3	–
1190.8 K	–	2032.6 kg/m3	–
1191.6 K	–	2032 kg/m3	–
1192.4 K	–	2031.4 kg/m3	–
1192.9 K	–	2030.7 kg/m3	–
1193.2 K	–	2030.7 kg/m3	–
1193.7 K	–	2030.1 kg/m3	–
1194.1 K	–	2029.5 kg/m3	–
1194.4 K	–	2029.5 kg/m3	–
1194.5 K	–	2028.9 kg/m3	–
1194.7 K	–	2028.3 kg/m3	–
1195.3 K	–	2028.3 kg/m3	–
1195.7 K	–	2027.7 kg/m3	–
1196 K	–	2027.1 kg/m3	–
1196.4 K	–	2027 kg/m3	–
1197.1 K	–	2026.4 kg/m3	–
1197.6 K	–	2026.3 kg/m3	–
1198.3 K	–	2025.7 kg/m3	–
1198.8 K	–	2025.1 kg/m3	–
1199.3 K	–	2025 kg/m3	–
1199.6 K	–	2024.4 kg/m3	–
1200 K	–	2024.4 kg/m3	–
1200.6 K	–	2023.8 kg/m3	–
1200.8 K	–	2023.2 kg/m3	–
1201.2 K	–	2023.2 kg/m3	–
1201.6 K	–	2022.6 kg/m3	–
1202.1 K	–	2022 kg/m3	–
1202.3 K	–	2020.8 kg/m3	–
1202.5 K	–	2020.8 kg/m3	–
1203 K	–	2020.2 kg/m3	–
1203.4 K	–	2020.1 kg/m3	–
1203.7 K	–	2019.6 kg/m3	–
